From patent US10968227B2, “Isoquinoline ether compounds as mGluR4 allosteric potentiators, compositions, and methods of treating neurological dysfunction” (Vanderbilt University, priority 2016, dated 2021)
Values after ≈ are worked out from the molar mass of the structure shown.

How the values were obtained:
2C9 = 2C9 (Homo sapiens (Human), UniProt P11712); assay: CYP 2C9 inhibition; type: in vitro ADME
2D6 = 2D6 (Homo sapiens (Human), UniProt P10635); assay: CYP 2D6 inhibition; type: in vitro ADME
3A4 = 3A4 (Homo sapiens (Human), UniProt P08684); assay: CYP 3A4 inhibition; type: in vitro ADME
[1] = Rat intrinsic and hepatic clearance; type: in vitro ADME
[2] = Human intrinsic and hepatic clearance; type: in vitro ADME
1A2 = 1A2 (Homo sapiens (Human), UniProt P05177); assay: CYP 1A2 inhibition; type: in vitro ADME
Kinetic solubility = type: physicochemical; conditions: kinetic from dmso stock
Rat in vivo clearance = conditions: read-out: Rat in Vivo CL
[3] = Rat plasma fraction unbound; type: in vitro ADME; conditions: read-out: Rat Fu Plasma
[4] = Rat brain fraction unbound; type: in vitro ADME; conditions: read-out: Rat Fu Brain
[5] = Human plasma fraction unbound; type: in vitro ADME; conditions: read-out: Human Fu Plasma
Brain-plasma partition = type: in vivo; conditions: rat; for unbound brain-to-plasma partition coefficient (Kp,uu): unbound brain-plasma ratio, read-out: Brain-Plasma Kp,ω

Chain of 1A2 (P05177 whole entry): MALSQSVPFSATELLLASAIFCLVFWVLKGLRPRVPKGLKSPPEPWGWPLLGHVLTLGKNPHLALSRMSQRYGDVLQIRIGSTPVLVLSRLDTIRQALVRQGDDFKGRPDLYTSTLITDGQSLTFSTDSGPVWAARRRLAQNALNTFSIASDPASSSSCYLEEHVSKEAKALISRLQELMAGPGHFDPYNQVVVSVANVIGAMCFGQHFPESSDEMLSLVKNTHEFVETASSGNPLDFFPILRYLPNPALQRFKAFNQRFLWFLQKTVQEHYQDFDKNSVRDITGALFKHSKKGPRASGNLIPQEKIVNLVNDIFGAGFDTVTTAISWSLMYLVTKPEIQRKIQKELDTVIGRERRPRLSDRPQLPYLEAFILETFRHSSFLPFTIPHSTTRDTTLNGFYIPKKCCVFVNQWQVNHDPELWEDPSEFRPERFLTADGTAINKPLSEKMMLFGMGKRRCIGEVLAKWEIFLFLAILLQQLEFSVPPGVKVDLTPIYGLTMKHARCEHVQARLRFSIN
Chain of 2D6 (P10635 whole entry): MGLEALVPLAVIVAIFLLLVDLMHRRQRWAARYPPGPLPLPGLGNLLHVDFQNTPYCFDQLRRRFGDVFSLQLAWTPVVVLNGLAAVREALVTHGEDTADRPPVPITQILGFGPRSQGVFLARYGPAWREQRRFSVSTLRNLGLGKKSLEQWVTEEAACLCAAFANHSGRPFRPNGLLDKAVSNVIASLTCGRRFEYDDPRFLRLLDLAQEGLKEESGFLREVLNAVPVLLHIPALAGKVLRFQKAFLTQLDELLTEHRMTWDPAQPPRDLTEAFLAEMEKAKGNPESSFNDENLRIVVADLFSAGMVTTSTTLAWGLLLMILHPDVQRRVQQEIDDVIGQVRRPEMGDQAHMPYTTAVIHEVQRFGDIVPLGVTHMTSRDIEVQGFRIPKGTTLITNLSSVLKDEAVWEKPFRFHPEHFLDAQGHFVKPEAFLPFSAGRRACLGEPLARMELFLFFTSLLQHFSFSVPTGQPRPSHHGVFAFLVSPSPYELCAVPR
Chain of 3A4 (P08684 whole entry): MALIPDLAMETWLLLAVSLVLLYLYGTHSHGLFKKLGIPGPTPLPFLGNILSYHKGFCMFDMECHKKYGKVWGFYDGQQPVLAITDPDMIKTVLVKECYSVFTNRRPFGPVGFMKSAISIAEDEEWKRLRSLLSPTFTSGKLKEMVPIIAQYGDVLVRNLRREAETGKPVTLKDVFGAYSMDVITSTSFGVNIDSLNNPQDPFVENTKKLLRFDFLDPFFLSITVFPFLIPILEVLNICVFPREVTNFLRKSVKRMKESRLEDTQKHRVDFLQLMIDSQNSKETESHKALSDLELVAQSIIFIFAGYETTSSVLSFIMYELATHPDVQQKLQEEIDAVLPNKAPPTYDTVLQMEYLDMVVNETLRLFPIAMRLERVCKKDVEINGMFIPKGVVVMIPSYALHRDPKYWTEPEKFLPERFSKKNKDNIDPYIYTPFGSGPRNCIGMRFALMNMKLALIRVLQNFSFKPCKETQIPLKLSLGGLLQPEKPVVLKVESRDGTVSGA
Chain of 2C9 (P11712 whole entry): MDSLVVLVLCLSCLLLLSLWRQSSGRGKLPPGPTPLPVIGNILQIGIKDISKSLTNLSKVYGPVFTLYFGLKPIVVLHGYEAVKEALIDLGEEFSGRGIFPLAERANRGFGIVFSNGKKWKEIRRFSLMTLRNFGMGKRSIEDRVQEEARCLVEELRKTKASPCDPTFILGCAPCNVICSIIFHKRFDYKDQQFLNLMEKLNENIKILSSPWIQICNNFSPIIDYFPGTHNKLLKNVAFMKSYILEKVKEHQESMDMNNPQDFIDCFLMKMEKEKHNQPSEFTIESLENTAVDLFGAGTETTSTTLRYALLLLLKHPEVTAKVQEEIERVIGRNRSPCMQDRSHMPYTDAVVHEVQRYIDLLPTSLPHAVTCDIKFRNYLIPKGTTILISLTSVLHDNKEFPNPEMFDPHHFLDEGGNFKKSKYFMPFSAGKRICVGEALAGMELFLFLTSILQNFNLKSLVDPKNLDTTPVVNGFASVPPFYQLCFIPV

| Structure (SMILES) | IC50 (2C9) [µM] | IC50 (2D6) [µM] | IC50 (3A4) [µM] | CLint scaled [1] [mL/min/kg] | Rat CLhep [1] [mL/min/kg] | CLint scaled [2] [mL/min/kg] | Human CLhep [2] [mL/min/kg] | IC50 (1A2) [µM] | solubility kinetic (Kinetic solubility) [µM] | clearance (Rat in vivo clearance) [mL/min/kg] | fraction unbound [3] | fraction unbound [4] | fraction unbound [5] | Kp (Brain-plasma partition) | unbound brain-to-plasma partition coefficient (Kp,uu) (Brain-plasma partition) |
| --- | --- | --- | --- | --- | --- | --- | --- | --- | --- | --- | --- | --- | --- | --- | --- |
| c1cnc2c(Nc3ccc4c(O[C@H]5CCCOC5)nccc4c3)n[nH]c2c1 [Compound 61] | 6.04 | 19.7 | 4.29 | 333 | 57.8 | 44 | 14.2 | 5.86 |  | 61 | 0.04 | 0.005 | 0.028 | 1.83 | 0.23 |
| CO[C@H](C)COc1nccc2cc(Nc3n[nH]c4cccnc34)ccc12 [Compound 70] | 6.87 | 22.5 | 11.4 | 238 | 54.1 | 57 | 15.3 | 4.96 | 2.9 ± 0.4 (≈ 1.01 µg/mL) | 74.2 | 0.032 | 0.006 | 0.017 | 2.56 | 0.48 |
| c1cnc2c(Nc3ccc4c(OC5CCOCC5)nccc4c3)n[nH]c2c1 [Compound 60] | 3.9 | 23.5 | 12.3 | 94.1 | 40.1 | 16.1 | 8.79 | 5.68 |  | 81.6 | 0.03 | 0.008 | 0.02 | 1.44 | 0.39 |
| COCCOc1nccc2cc(Nc3n[nH]c4cccnc34)ccc12 [Compound 67] | 22 | > 30 | 9.45 | 113 | 43.2 | 35.2 | 13.2 | 4.76 | 5.5 ± 0.5 (≈ 1.84 µg/mL) | 82.2 | 0.039 | 0.007 | 0.024 | 1.11 | 0.2 |
| c1cnc2c(Nc3ccc4c(O[C@H]5CCOC5)nccc4c3)n[nH]c2c1 [Compound 64] | 10.6 | > 30 | 27.7 | 94.8 | 40.3 | 29.1 | 12.2 | 7.99 | 4.9 ± 0.6 (≈ 1.7 µg/mL) | 59.8 | 0.042 | 0.007 | 0.02 | 1.22 | 0.2 |
| c1cnc2c(Nc3ccc4c(OCC5COCCO5)nccc4c3)n[nH]c2c1 (centres unmarked) [Compound 73] | 15.3 | > 30 | 29.5 | 120 | 44.2 | 26.5 | 11.5 | 16.4 | 2.4 ± 0.5 (≈ 0.906 µg/mL) | 32.7 | 0.039 | 0.01 | 0.038 | 0.57 | 0.15 |
| c1cc2cc(Nc3n[nH]c4nccnc34)ccc2c(O[C@@H]2CCOC2)n1 [Compound 58] | > 30 | > 30 | > 30 | 122 | 44.4 | 32.4 | 12.7 | > 30 |  | 116 | 0.055 | 0.014 | 0.032 | 1.29 | 0.33 |

More lines, now with the values ahead:

| IC50 (2C9) [µM] | IC50 (2D6) [µM] | IC50 (3A4) [µM] | CLint scaled [1] [mL/min/kg] | Rat CLhep [1] [mL/min/kg] | CLint scaled [2] [mL/min/kg] | Human CLhep [2] [mL/min/kg] | IC50 (1A2) [µM] | solubility kinetic (Kinetic solubility) [µM] | clearance (Rat in vivo clearance) [mL/min/kg] | fraction unbound [3] | fraction unbound [4] | fraction unbound [5] | Kp (Brain-plasma partition) | unbound brain-to-plasma partition coefficient (Kp,uu) (Brain-plasma partition) | Structure (SMILES) |
| --- | --- | --- | --- | --- | --- | --- | --- | --- | --- | --- | --- | --- | --- | --- | --- |
| > 30 | > 30 | > 30 | 79.9 | 37.3 | 18.1 | 9.71 | 17 | 0.5 ± 0.2 (≈ 0.181 µg/mL) | 43.3 | 0.032 | 0.003 | 0.01 | 2.22 | 0.21 | C[C@H]1C[C@H](Oc2nccc3cc(Nc4n[nH]c5ncccc45)ccc23)CO1 [Compound 88] |
| > 30 | > 30 | > 30 | 95.7 | 40.4 | 41.2 | 13.9 | > 30 | 0.6 ± 0.1 (≈ 0.217 µg/mL) | 36.9 | 0.019 | 0.013 | 0.026 | 0.66 | 0.45 | c1cc2cc(Nc3n[nH]c4nccnc34)ccc2c(OCC2CCOC2)n1 (centres unmarked) [Compound 85] |
| 1.85 | > 30 | > 30 | 61 | 32.6 | 16 | 9.07 | 15.8 | 0.7 ± 0.4 (≈ 0.253 µg/mL) | 39.1 |  |  |  |  |  | C[C@H]1C[C@H](Oc2nccc3cc(Nc4n[nH]c5cccnc45)ccc23)CO1 [Compound 87] |
| > 30 | > 30 | > 30 | 252 | 54.8 | 32.3 | 12.7 | > 30 | 0.8 ± 0.3 (≈ 0.268 µg/mL) |  | 0.041 | 0.007 | 0.038 | 0.59 | 0.1 | COCCOc1nccc2cc(Nc3n[nH]c4ncccc34)ccc12 [Compound 74] |
| > 30 | > 30 | > 30 | 58.1 | 31.7 | 19 | 10.0 | > 30 | 0.6 ± 0.2 (≈ 0.227 µg/mL) |  | 0.057 | 0.018 | 0.063 | 0.35 | 0.11 | c1cc2cc(Nc3n[nH]c4nccnc34)ccc2c(OCC2COCCO2)n1 (centres unmarked) [Compound 86] |
